This note sets out measurements from patent US7601805B2, “Photoprotein with improved bioluminescence” (AXXAM S.R.L., priority 2002, dated 2009).

For test [1], the system named is endogenous ATP receptor expressed by CHO-K1 cell. Put plainly: ATP-stimulated light emission in CHO-K1 cells transfected with Photin DNA. In kind it is cell-based. The conditions noted are these: two different concentrations of ATP (FIG. 3A). On the procedure:
Cell transfection, harvesting, and Photin expression were performed as described in Example 1. Cells were treated with two different concentration of ATP. (B) The CHO-K1 cells transfected with Obelin DNA were used as positive control. Luminescence is expressed in RLU (relative light units).
3.1 Photin-expressing clones have been obtained by transfection of CHO-K1 cells (Materials and Methods). Two days after transfection the cells were trypsinized and diluted 10 or 100 times. Once the cells were grown up to well isolated colonies, the colonies were transferred to new plates and selected on the basis of their functional response (luminescent signal) to different concentration of ATP, which is known to stimulate the CHO endogenous receptor and to rise the cytoplasmic Ca^++ concentration. At the end of each experiment, cells were lysed by perfusion of a solution containing TritonX-100 and CaCl2. The active photoprotein was reconstituted incubating the cells with 10 μM coelenterazine diluted in PBS containing 2 mM calcium, in the dark at 37° C. in a 5% CO2 atmosphere for 3 hrs. For light emission measurement, cells were lysed in the presence of calcium and the emitted luminescence recorded. […] To detect changes in calcium concentrations, 10, 50 and 100 μM ATP were injected and the kinetics of calcium response determined. […]

Test [2] deals with T1, rat VR1 capsaicin receptor (Rattus norvegicus, UniProt O35433).
T1 construct: expressed in transfected cells; host or cells: CHO
Put plainly: Capsaicin-stimulated flash luminescence in CHO cells expressing Apophotin and rat VR1. Type of test: cell-based. The conditions noted are these: 10 and 50 μM capsaicin; CHO cells with Apophotin and rat VR1 (FIG. 5). On the procedure: The specific agonist, capsaicin, was used at a concentration of 10 and 50 μM.
3.3 CHO cell lines expressing both Apophotin and the rat VR1 capsaicin receptor—a calcium-permeable ion channel—were grown to 80-95% confluence in tissue culture flasks and harvested by trypsinization. Cells were dispensed at 10,000 cells/well in a 96-well white plates in growth medium and incubated overnight at 37° C. in a humidified incubator at 5% CO2. For luminescence experiments, the cells were loaded with coelenterazine 10 μM for 3 h at 37° C., 5% CO2. Calcium response was stimulated by addition of 10 and 50 μM capsaicin to each well. The kinetics of flash luminescence was followed using Labsystem Luminoskan Ascent, which injects reagents and records light emission from each single well.

T1 sequence (O35433 whole entry): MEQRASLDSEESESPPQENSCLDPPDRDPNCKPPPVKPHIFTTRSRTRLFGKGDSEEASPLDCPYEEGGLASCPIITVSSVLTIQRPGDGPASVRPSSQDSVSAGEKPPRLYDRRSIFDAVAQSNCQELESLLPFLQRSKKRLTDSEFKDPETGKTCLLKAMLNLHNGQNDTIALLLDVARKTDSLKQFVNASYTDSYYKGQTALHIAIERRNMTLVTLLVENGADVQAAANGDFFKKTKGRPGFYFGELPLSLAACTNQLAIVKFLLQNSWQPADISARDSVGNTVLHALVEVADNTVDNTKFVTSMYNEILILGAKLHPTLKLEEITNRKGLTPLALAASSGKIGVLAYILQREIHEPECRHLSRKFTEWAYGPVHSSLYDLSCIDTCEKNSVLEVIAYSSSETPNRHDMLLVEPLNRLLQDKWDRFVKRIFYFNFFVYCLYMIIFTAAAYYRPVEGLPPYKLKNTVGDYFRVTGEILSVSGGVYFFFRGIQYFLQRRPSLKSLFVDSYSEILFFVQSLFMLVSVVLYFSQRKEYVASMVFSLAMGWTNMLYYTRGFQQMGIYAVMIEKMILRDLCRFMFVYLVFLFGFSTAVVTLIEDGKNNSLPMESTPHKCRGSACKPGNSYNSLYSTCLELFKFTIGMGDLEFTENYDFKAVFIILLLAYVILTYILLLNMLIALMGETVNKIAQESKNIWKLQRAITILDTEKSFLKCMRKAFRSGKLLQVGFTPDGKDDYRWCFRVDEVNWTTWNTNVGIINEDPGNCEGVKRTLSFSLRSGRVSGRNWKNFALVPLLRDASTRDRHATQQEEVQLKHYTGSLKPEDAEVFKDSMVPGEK

On to `Nc1ncnc2c1ncn2[C@@H]1O[C@H](COP(=O)(O)OP(=O)(O)OP(=O)(O)O)[C@@H](O)[C@H]1O` [ATP], for which the “light emission upon stimulation of the endogenous ATP receptor” value in test [1] is reported as “dose dependent light emission”.
In the case of `COc1cc(CNC(=O)CCCC/C=C/C(C)C)ccc1O` [capsaicin], in test [2], the “time of peak level of luminescence signal” value is on record as “about 10 seconds”; the “time within which the rapid and transient luminescence signal occurred” value is not above 30 s.
